Results on two molecules are retold here after patent US20190022253A1, “UNIT DOSAGE OF APADENOSON” (University of Virginia Patent Foundation, priority 2008, published 2019).

In experiment [1] the test system is patients. As to the kind of experiment: Phase II study: coronary blood flow velocity monitored with a flow wire. It counts as in vivo, human. The procedure:
that can be used in clinical perfusion imaging techniques (e.g., for diagnosing and assessing the extent of coronary artery disease) in U.S. Pat. No. 6,322,771. This agent has since been taken into Phase I and II clinical trials. In 2005, Dr. […] et al reported to the American Heart Association on the preliminary results of 127 patient SPECT Tc^99m sestamibi imaging studying comparing adenosine with Apadenoson using either 1 μg/kg or 2 μg/kg intravenous boluses of Apadenoson. […] In 2006, Dr. Kern et al reported to the American Heart Association the results of a Phase II study of Apadenoson, one goal of which was to determine an appropriate dose for Phase III clinical trials. Intravenous bolus dosages of 0.5, 1.0, 2.0, and 2.5 μg/kg were studied. […] In this Phase II study in 100 patients, conducted by Dr. Morton Kern, an independent investigator at UC Irvine, […] was administered by intracoronary injection, and coronary blood flow velocity was monitored with a flow wire. […] The previously reported increase in coronary blood flow velocity (CBFV) corresponding to an increase in dose of Apadenoson from 0.5 to 2 μg/kg was based on the increase in CBFV in a limited number of patients (see FIG. 1).

Experiment [2] concerns patients. Particulars: intravenous bolus, dosage from 0.5 to 2 μg/kg; limited number of patients (FIG. 1); Kern et al 2006; cited from earlier work.

For `Nc1ncnc2c1ncn2[C@@H]1O[C@H](CO)[C@@H](O)[C@H]1O` [adenosine, reference compound], in experiment [1] (three intracoronary injections, one patient (FIG. 1)), the “coronary blood flow velocity” value is recorded as “increased blood flow velocity”.
Regarding `CCNC(=O)[C@H]1O[C@@H](n2cnc3c(N)nc(C#CC[C@H]4CC[C@H](C(=O)OC)CC4)nc32)[C@H](O)[C@@H]1O` [Apadenoson], the “average peak velocity for coronary blood flow versus dose” value in experiment [2] was “increase with a corresponding increase in dosage”. Besides, in experiment [1] (1 μg/kg or 2 μg/kg administered), the dose response curve entry was “no dose response curve is seen”. Moreover, the “dose response of coronary blood flow velocity (CBFV)” value in experiment [1] (entire sample of patients (FIG. 2, 33 patients), dose ≥1 μg/kg, in particular between 1 and 2.5 μg/kg) is listed as “no dose response is seen”. For the same molecule, in experiment [1] (increasing bolus doses, one patient (FIG. 1)), the “peak flow compared with adenosine” value is given as “achieved peak flow equivalent to adenosine”.
